Reference: patent US10316017B2, “COT modulators and methods of use thereof” (Gilead Sciences, Inc., priority 2015, dated 2019)
Read-outs that look alike come from different tables or passages of the source.

Assays:
[1] = target: T1, human Cot catalytic domain (30-397 amino acids) (Homo sapiens, UniProt P41279); assay: High Throughput Cot Biochemical Assay (KinEASE TR-FRET); conditions: read-out: IC50 HTRF
T1 construct: Purified recombinant human Cot catalytic domain (30-397 amino acids) was purchased from Cama Biosciences; purchased Cama Biosciences (so in the source)
How it was run: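 Recombinant human Cot catalytic domain (aa 30-397), 5 nM, with 1 μM STK3 peptide and 400 μM ATP in MOPS pH 7.0 buffer with MgOAc, DTT, BSA, NP-40, glycerol, 0.1% DMSO. Phosphorylated XL665-peptide detected by Eu-[…] antibody TR-FRET.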

[2] = system: TNFα production in LPS-stimulated human monocytes; assay: Cot Monocyte TNFα Cell Based Assay; conditions: Homo sapiens, Monocyte, read-out: EC50 TNF
How it was run: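 Human monocytes (5,000 cells/well) pretreated with compound for 1 hour at 37° C (0.5% DMSO), then stimulated with 50 pg/ml LPS for 4 hours. Total TNFα measured by TR-FRET after overnight antibody incubation at room temp, expressed as percent of control between unstimulated and stimulated cells.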

[3] = Cot KinEASE TR-FRET, 400 μM ATP
[4] = LPS-stimulated human monocytes, TNFα TR-FRET
[5] = Cot biochemical HTRF (KinEASE TR-FRET) assay
[6] = TNFα in LPS-stimulated human monocytes
[7] = Cot KinEASE TR-FRET (HTRF) biochemical assay, 400 μM ATP

T1 sequence (P41279 30-397): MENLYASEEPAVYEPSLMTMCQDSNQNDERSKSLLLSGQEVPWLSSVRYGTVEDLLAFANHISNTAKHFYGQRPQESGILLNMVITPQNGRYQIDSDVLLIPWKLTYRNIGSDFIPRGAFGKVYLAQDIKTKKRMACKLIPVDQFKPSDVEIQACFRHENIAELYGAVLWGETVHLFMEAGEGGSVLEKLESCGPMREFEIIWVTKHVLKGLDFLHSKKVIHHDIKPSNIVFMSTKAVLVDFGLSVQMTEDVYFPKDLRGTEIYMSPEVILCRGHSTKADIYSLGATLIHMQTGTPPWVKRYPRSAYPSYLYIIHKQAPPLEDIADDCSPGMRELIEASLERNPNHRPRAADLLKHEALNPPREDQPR

| IC50 [1, 3] [µM] | EC50 [2, 4] [µM] | IC50 [1, 5] [µM] | EC50 [2, 6] [µM] | IC50 [1, 7] [µM] | Structure (SMILES) |
| --- | --- | --- | --- | --- | --- |
| 0.023 | 0.185 |  |  |  | CC(C)(C)CNc1c(C#N)cnc2c(Cl)cc(N[C@H](c3cn(C4(C(F)F)CC4)nn3)c3cccc(C#N)c3Cl)cc12 [Example 1075, (S)-8-chloro-6-(((2-chloro-3-cyanophenyl)(1-(1-(difluoromethyl)cyclopropyl)-1H-1,2,3-triazol-4-yl)methyl)amino)-4-(neopentylamino)quinoline-3-carbonitrile] |
|  |  | 0.004 | 0.15 |  | CC(C)N1CCC(n2cc([C@@H](Nc3cc(Cl)c4ncc(C#N)c(Nc5ccc(F)c(Cl)c5)c4c3)c3ccc(F)cc3)nn2)CC1 [Example 825, (S)-8-chloro-4-((3-chloro-4-fluorophenyl)amino)-6-(((4-fluorophenyl)(1-(1-isopropylpiperidin-4-yl)-1H-1,2,3-triazol-4-yl)methyl)amino)quinoline-3-carbonitrile] |
|  |  | 0.004 | 0.848 |  | CC[C@@H](Nc1c(C#N)cnc2c(Cl)cc(N[C@@H](c3cccc(C(=O)N4CC(F)C4)c3)c3c[nH]nn3)cc12)c1ccccc1 [Example 562, 8-chloro-6-(((S)-(3-(3-fluoroazetidine-1-carbonyl)phenyl)(1H-1,2,3-triazol-4-yl)methyl)amino)-4-(((R)-1-phenylpropyl)amino)quinoline-3-carbonitrile] |
|  |  | 0.183 | 0.537 |  | CC(C)(O)CNc1c(C#N)cnc2c(Cl)cc(N[C@@H](c3ccccc3)c3cn(C4CCN(C(C)(C)C)CC4)nn3)cc12 [Example 555, (S)-6-(((1-(1-(tert-butyl)piperidin-4-yl)-1H-1,2,3-triazol-4-yl)(phenyl)methyl)amino)-8-chloro-4-((2-hydroxy-2-methylpropyl)amino)quinoline-3-carbonitrile] |
|  |  | 0.061 | 0.694 |  | N#Cc1ccc([C@H](Nc2cc(Cl)c3ncc(C#N)c(Nc4ccc(Cl)c(Cl)c4F)c3c2)c2c[nH]nn2)cc1 [Example 464, (S)-8-chloro-6-(((4-cyanophenyl)(1H-1,2,3-triazol-4-yl)methyl)amino)-4-((3,4-dichloro-2-fluorophenyl)amino) quinoline-3-carbonitrile] |
|  |  |  | 0.074 | 0.003 | [2H][C@](Nc1cc(Cl)c2ncc(C#N)c(NC(CCC#N)c3ccccc3)c2c1)(c1ccc(F)cc1)c1cn(C2CC2)nn1 (stereo partly drawn) [Example 302, 8-chloro-4-((3-cyano-1-phenylpropyl)amino)-6-(((S)-(1-cyclopropyl-1H-1,2,3-triazol-4-yl)(4-fluorophenyl)methyl-d)amino)quinoline-3-carbonitrile] |
|  |  |  | 1.51 | 0.267 | [2H][C@](Nc1cc(C(F)(F)F)c2ncc(C#N)c(NCC(C)(C)C)c2c1)(c1ccc(F)cc1)c1cn(C2CC2)nn1 [Example 196, (S)-6-(((1-cyclopropyl-1H-1,2,3-triazol-4-yl)(4-fluorophenyl)methyl-d)amino)-4-(neopentylamino)-8-(trifluoromethyl) quinoline-3-carbonitrile] |
|  |  | 0.201 | 3.2 |  | CC(C)(C)N1CCC(n2cc([C@@H](Nc3cc(Cl)c4ncc(C#N)c(Nc5ccc(Cl)c(F)c5)c4c3)c3ccc(Cl)cc3)nn2)CC1 [Example 755, (S)-6-(((1-(1-(tert-butyl)piperidin-4-yl)-1H-1,2,3-triazol-4-yl)(4-chlorophenyl)methyl)amino)-8-chloro-4-((4-chloro-3-fluorophenyl)amino)quinoline-3-carbonitrile] |
|  |  | 0.041 | 0.708 |  | N#Cc1cnc2c(Cl)cc(N[C@@H](c3ccccc3)c3c[nH]nn3)cc2c1Nc1cccc(Cl)c1F [Example 613, (S)-8-chloro-4-((3-chloro-2-fluorophenyl)amino)-6-((phenyl(1H-1,2,3-triazol-4-yl)methyl)amino)quinoline-3-carbonitrile] |
|  |  |  | 0.793 | 0.085 | [2H][C@](Nc1cc(Cl)c2ncc(C#N)c(N[C@H](CO)C(C)(C)C)c2c1)(c1ccc(F)cc1)c1cn(C2CC2)nn1 [Example 187, 8-chloro-6-(((S)-(1-cyclopropyl-1H-1,2,3-triazol-4-yl)(4-fluorophenyl)methyl-d)amino)-4-(((S)-1-hydroxy-3,3-dimethylbutan-2-yl)amino)quinoline-3-carbonitrile] |
|  |  |  | 0.044 | 0.002 | [2H][C@](Nc1cc(Cl)c2ncc(C#N)c(N[C@H](CC#N)c3ccccc3)c2c1)(c1cccc(C#N)c1)c1cn(C2CC2)nn1 [Example 296, 8-chloro-4-(((R)-2-cyano-1-phenylethyl)amino)-6-(((S)-(3-cyanophenyl)(1-cyclopropyl-1H-1,2,3-triazol-4-yl)methyl-d)amino)quinoline-3-carbonitrile] |
| 0.002 | 0.045 |  |  |  | Cc1c(-c2cncn2C)cccc1[C@H](Nc1cc(C#N)c2ncc(C#N)c(NCC(C)(C)C)c2c1)c1cn(C2(C(F)F)CC2)nn1 [Example 1154, (S)-6-(((1-(1-(difluoromethyl)cyclopropyl)-1H-1,2,3-triazol-4-yl)(2-methyl-3-(1-methyl-1H-imidazol-5-yl)phenyl)methyl)amino)-4-(neopentylamino)quinoline-3,8-dicarbonitrile] |
|  |  | 0.166 | 1.08 |  | N#Cc1cnc2c(Cl)cc(N[C@@H](c3ccc(Cl)cc3)c3c[nH]nn3)cc2c1Nc1ccc(F)c(F)c1F [Example 631, (S)-8-chloro-6-(((4-chlorophenyl)(1H-1,2,3-triazol-4-yl)methyl)amino)-4-((2,3,4-trifluorophenyl)amino)quinoline-3-carbonitrile] |
|  |  |  | 0.015 | 0.001 | [2H][C@](Nc1cc(F)c2ncc(C#N)c(N[C@H](CCC#N)c3ccccc3)c2c1)(c1cccc(C#N)c1)c1cn(C2CC2)nn1 [Example 164, 4-(((R)-3-cyano-1-phenylpropyl)amino)-6-(((S)-(3-cyanophenyl)(1-cyclopropyl-1H-1,2,3-triazol-4-yl)methyl-d)amino)-8-fluoroquinoline-3-carbonitrile] |
|  |  | 0.141 | 0.719 |  | CC1(Nc2c(C#N)cnc3c(Cl)cc(N[C@@H](c4ccccc4)c4cn(C5CCN(C(C)(C)C)CC5)nn4)cc23)CCCCCC1 [Example 615, (S)-6-(((1-(1-(tert-butyl)piperidin-4-yl)-1H-1,2,3-4-yl)(phenyl)methyl)amino)-8-chloro-4-((1-methylcycloheptyl)amino) quinoline-3-carbonitrile] |
|  |  |  | 0.134 | 0.004 | [2H][C@](Nc1cc(Cl)c2ncc(C#N)c(N[C@H](CC)c3ccccc3)c2c1)(c1cccc(C#N)c1)c1c[nH]nn1 [Compound 15] |
|  |  |  | 2.11 | 0.162 | [2H][C@](Nc1cc(Cl)c2ncc(C#N)c(NCCc3ccnn3C)c2c1)(c1ccc(F)cc1)c1cn(C2CC2)nn1 [Example 149, (S)-8-chloro-6-(((1-cyclopropyl-1H-1,2,3-triazol-4-yl)(4-fluorophenyl)methyl-d)amino)-4-((2-(1-methyl-1H-pyrazol-5-yl)ethyl)amino) quinoline-3-carbonitrile] |
|  |  | 0.088 | 1.68 |  | CC(C)(C)N1CCC(n2cc([C@@H](Nc3cc(Cl)c4ncc(C#N)c(Nc5cccc(C#N)c5)c4c3)c3ccc(Cl)cc3)nn2)CC1 [Example 753, (S)-6-(((1-(1-(tert-butyl)piperidin-4-yl)-1H-1,2,3-triazol-4-yl)(4-chlorophenyl)methyl)amino)-8-chloro-4-((3-cyanophenyl)amino)quinoline-3-carbonitrile] |
|  |  |  | 0.562 | 0.048 | [2H][C@](Nc1cc(-c2cccnc2)c2ncc(C#N)c(NCC(C)(C)C)c2c1)(c1ccc(F)cc1)c1cn(C2CC2)nn1 [Example 170, (S)-6-(((1-cyclopropyl-1H-1,2,3-triazol-4-yl)(4-fluorophenyl)methyl-d)amino)-4-(neopentylamino)-8-(pyridin-3-yl)quinoline-3-carbonitrile] |
|  |  | 0.001 | 0.115 |  | CC(C)(C)N1CCC(n2cc([C@@H](Nc3cc(Cl)c4ncc(C#N)c(Nc5ccc(F)c(Cl)c5)c4c3)c3cccc(N4CCCC4=O)c3)nn2)CC1 [Example 550, (S)-6-(((1-(1-(tert-butyl)piperidin-4-yl)-1H-1,2,3-triazol-4-yl)(3-(2-oxopyrrolidin-1-yl)phenyl)methyl)amino)-8-chloro-4-((3-chloro-4-fluorophenyl)amino)quinoline-3-carbonitrile] |
|  |  | 0.017 | 0.787 |  | CS(=O)(=O)c1cccc([C@H](Nc2cc(Cl)c3ncc(C#N)c(Nc4ccc(Cl)c(Cl)c4F)c3c2)c2c[nH]nn2)c1 [Example 462, (S)-8-chloro-4-((3,4-dichloro-2-fluorophenyl)amino)-6-(((3-(methylsulfonyl)phenyl) (1H-1,2,3-triazol-4-yl)methyl)amino)quinoline-3-carbonitrile] |
|  |  | 0.052 | 1.36 |  | CC(C)(C)N1CCC(n2cc([C@@H](Nc3cc(Cl)c4ncc(C#N)c(Nc5cc(Cl)ccc5Cl)c4c3)c3ccccc3)nn2)CC1 [Example 527, (S)-6-(((1-(1-(tert-butyl)piperidin-4-yl)-1H-1,2,3-triazol-4-yl)(phenyl)methyl)amino)-8-chloro-4-((2,5-dichlorophenyl)amino) quinoline-3-carbonitrile] |
